Values after ≈ are worked out from the molar mass of the structure shown.
What was measured:
[1] = test system: Chinese hamster Ovary cells (CHO-K1); experiment: Cytotoxicity assay (WST-1 / Neutral Red); format: cell-based; conditions: Cricetulus griseus, 24 h, 24-h incubation
Experimental: The cytotoxic activities of compounds were assessed on Chinese hamster Ovary cells (CHO-K1) provided from ATCC-LGC Standards Sarl (Molsheim, France). Cells were maintained in Mc Coy’s 5A (CHO) medium supplemented with 10% bovine calf serum, 2 mM glutamine, and 100 U mL^−1/10 µg mL^−1 penicillin/streptomycin mixtures. For the cytotoxicity experiments, they were seeded in 96-well plates and incubated at 37 °C in humidified atmosphere containing 5% CO2 overnight, then concentrations of compounds were incorporated in triplicate cultures. After a 24-h incubation period at 37 °C, cells were submitted to three successive washes in phosphate buffer saline (PBS) and cell viability was evaluated by two different vital dyes: • i. A first set of cell cultures was incubated in PBS containing 10% WST-1 for 30 min at 37 °C, 5% CO2. Cell viability was evaluated by the assessment of WST-1 absorbance at 450 nm in a microplate spectrophotometer. • ii. A second set of cell cultures was placed into Neutral Red medium (50 μg mL^−1 Neutral Red in complete medium) and incubated for 3 h at 37 °C, 5% CO2. Then the Neutral Red medium was removed and the distaining solution (50% ethanol, 1% acetic acid, 49% distilled water; 50 µL per well) was added into the wells. The plates were shaken for 15–20 min at room temperature in the dark. Cell viability was evaluated by the assessment of absorbance at 540 nm in a microplate spectrophotometer.
Results were expressed as percentages of cell viability about the control (culture medium-only), which corresponded to 100% cell viability. Dose-response curves were calculated by non-linear regression analysis with TableCurve 2D software (V 5.0.1) (Systat Software Inc., San Jose, CA, USA). The Inhibitory Concentration 50% (IC50) was defined as the concentration of compounds that induced a 50% decrease of viable cells.

[2] = test system: S. aureus 340 and P. aeruginosa 1051575; experiment: MIC against S. aureus and P. aeruginosa strains (Figure 6); format: cell-based; conditions: range over both strains, C-24 methyl ester series
Experimental: Antimicrobial activity of the compounds was studied by determination of minimal inhibitory concentrations (MIC) according to the NCCLS guidelines M7-A2 using the microbroth dilution methods. The bacteria strains were grown on trypticase soy agar (Becton Dickinson) at 37 °C for 24 h. Inocula were prepared in TCE (tryptone 0.1%, […], wt/vol) by ajusting the turbidity at 623 nm to obtain 1–3 10^5 CFU/mL.
Antimicrobial activities of the compounds were determined by using a broth microdilution method performed in sterile 96-well microplates. All compounds were solubilized in water at a concentration of 10 mM and were transferred to each microplate well in order to obtain a two-fold serial dilution in 100 µL of broth and 100 µL of inoculum containing 2–6 10^5 CFU of each bacterium were added to each well. Some wells were reserved for positive controls and inoculum viability.

| SMILES | IC50 [1] [µg/mL] | MIC [2] [µg/mL] |
| --- | --- | --- |
| COC(=O)CCC(C)C1CCC2C3CCC4CC(NCCCNCCCCNCCCN)CCC4(C)C3CC(O)C12C (stereo not drawn) [Claramine A05] | 8 (≈ 13.5 µM) | 2 to 4 (≈ 3.38 to 6.77 µM) |
| COC(=O)CCC(C)C1CCC2C3CCC4CC(NCCCCN)CCC4(C)C3CC(O)C12C (stereo not drawn) [Claramine A11] | – | 6 to 50 (≈ 12.6 to 105 µM) |
| COC(=O)CCC(C)C1CCC2C3CCC4CC(NCCCCCN)CCC4(C)C3CC(O)C12C (stereo not drawn) [Claramine A12] | – | 6 to 50 (≈ 12.2 to 102 µM) |
| COC(=O)CCC(C)C1CCC2C3CCC4CC(NCCCN(C)CCCN)CCC4(C)C3CC(O)C12C (stereo not drawn) [Claramine A16] | – | 7 to 14 (≈ 13.1 to 26.2 µM) |
| COC(=O)CCC(C)C1CCC2C3CCC4CC(NCCCN(CCCN)CCCN)CCC4(C)C3CC(O)C12C (stereo not drawn) [Claramine A17] | – | 7 to 14 (≈ 12.1 to 24.3 µM) |
